The source made the active and inactive calls. No cut-off for these calls is given here.
Assays:
[1] = biological target: T1, Peptidyl-prolyl cis-trans isomerase NIMA-interacting 1 (Homo sapiens, UniProt Q13526); test: Inhibition of N-terminal 6-His tagged full length Pin1 (unknown origin) expressed in Escherichia coli at 10 uM using Suc-AEPF-pNA as substrate preincubated for 10 mins followed by substrate addition and measured for 180 secs by spectrophotometry relative to untreated control
[2] = biological target: T1, Peptidyl-prolyl cis-trans isomerase NIMA-interacting 1; test: Inhibition of N-terminal 6-His tagged full length Pin1 (unknown origin) expressed in Escherichia coli using Suc-AEPF-pNA as substrate preincubated for 10 mins followed by substrate addition and measured for 180 secs by spectrophotometry
[3] = biological target: Peptidyl-prolyl cis-trans isomerase NIMA-interacting 4 (Homo sapiens) (UniProt Q9Y237); test: Inhibition of recombinant N-terminal His6-tagged Pin4 (unknown origin) expressed in Escherichia coli at 1 to 50 uM using Suc-AEPF-pNA as substrate preincubated for 10 min followed by substrate addition measured for 180 secs
Chain of Peptidyl-prolyl cis-trans isomerase NIMA-interacting 4 (Homo sapiens) (Q9Y237 whole entry): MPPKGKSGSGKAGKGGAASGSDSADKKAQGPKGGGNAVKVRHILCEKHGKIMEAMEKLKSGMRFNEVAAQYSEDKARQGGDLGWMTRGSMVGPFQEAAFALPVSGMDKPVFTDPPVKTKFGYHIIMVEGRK

[4] = biological target: Peptidyl-prolyl cis-trans isomerase A (Homo sapiens) (UniProt P62937); test: Inhibition of recombinant N-terminal His6-tagged Cyclophilin A (unknown origin) expressed in Escherichia coli at 1 to 50 uM using Suc-AEPF-pNA as substrate preincubated for 10 min followed by substrate addition measured for 180 secs
Chain of Peptidyl-prolyl cis-trans isomerase A (Homo sapiens) (P62937 whole entry, looked up): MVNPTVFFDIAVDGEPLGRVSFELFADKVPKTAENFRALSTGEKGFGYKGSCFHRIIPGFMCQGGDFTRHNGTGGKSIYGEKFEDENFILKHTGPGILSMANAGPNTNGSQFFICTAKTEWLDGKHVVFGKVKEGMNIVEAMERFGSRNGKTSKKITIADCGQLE

[5] = biological target: T1, Peptidyl-prolyl cis-trans isomerase NIMA-interacting 1; test: Inhibition of recombinant N-terminal His6-tagged Pin1 (unknown origin) expressed in Escherichia coli at 1 to 50 uM using Suc-AEPF-pNA as substrate preincubated for 10 min followed by substrate addition measured for 180 secs
SK-HEP1 [6] = test: Cytotoxicity against human SKHEP1 cells assessed as reduction in cell viability by MTT assay; type: functional, cell-based
SNU-423 = test: Cytotoxicity against human SNU423 cells assessed as reduction in cell viability by MTT assay; type: functional, cell-based
SK-HEP1 [7] = test: Antiproliferation activity against human SKHEP1 cells assessed as reduction in colony formation at 2.5 uM measured after 7 days by crystal violet staining based microscopic analysis; type: functional, cell-based
[8] = biological target: T1, Peptidyl-prolyl cis-trans isomerase NIMA-interacting 1; test: Inhibition of Pin1 in human SKHEP1 cells assessed as increase in cytoplasm distribution of XPO5 at 2.5 uM incubated for 36 hrs by DAPI staining based confocal microscopic analysis; type: cell-based
[9] = biological target: T1, Peptidyl-prolyl cis-trans isomerase NIMA-interacting 1; test: Inhibition of Pin1 in human SKHEP1 cells assessed as increase in miR-122 expression at 2.5 uM incubated for 36 hrs by quantitative RT PCR analysis; type: cell-based
[10] = biological target: T1, Peptidyl-prolyl cis-trans isomerase NIMA-interacting 1; test: Inhibition of Pin1 in human SKHEP1 cells assessed as increase in miR-29b expression at 2.5 uM incubated for 36 hrs by quantitative RT PCR analysis; type: cell-based
[11] = biological target: Peptidyl-prolyl cis-trans isomerase FKBP1A (Homo sapiens) (UniProt P62942); test: Inhibition of recombinant N-terminal His6-tagged FKBP12 (unknown origin) expressed in Escherichia coli at 1 to 50 uM using Suc-AEPF-pNA as substrate preincubated for 10 min followed by substrate addition measured for 180 secs
Chain of Peptidyl-prolyl cis-trans isomerase FKBP1A (Homo sapiens) (P62942 whole entry, looked up): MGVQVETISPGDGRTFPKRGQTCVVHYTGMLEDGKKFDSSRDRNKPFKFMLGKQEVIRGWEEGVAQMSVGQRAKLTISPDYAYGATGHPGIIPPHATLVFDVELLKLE

T1 sequence (Q13526 whole entry): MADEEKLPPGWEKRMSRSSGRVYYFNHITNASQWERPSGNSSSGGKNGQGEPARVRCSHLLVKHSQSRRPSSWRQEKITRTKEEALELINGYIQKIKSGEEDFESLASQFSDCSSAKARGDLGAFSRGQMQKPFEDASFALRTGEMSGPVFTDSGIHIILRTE

Row | SMILES | inhibition [1] [%] | other results
1 | COc1cccc2c(-c3ccccc3)coc12 | 22.2 | –
2 | COc1cccc2occ(-c3ccccc3)c12 | 59.5 | –
3 | COc1ccc2occ(-c3ccccc3)c2c1 | 27 | –
4 | COc1ccc2occ(-c3ccc(Cl)cc3)c2c1 | 18 | –
5 | Cc1ccc(-c2coc3ccc([N+](=O)[O-])cc23)cc1 | 32.6 | –
6 | c1coc(-c2coc3ccccc23)c1 | 22.2 | –
7 | Cc1ccc(-c2coc3c(C)c(C)ccc23)cc1 | 64.6 | –
8 | Clc1cc(Cl)c2occ(-c3ccccc3)c2c1 | 16.2 | –
9 | Clc1cccc2c(-c3ccccc3)c(-c3ccccc3)oc12 | 13.6 | –
10 | c1ccc(COc2cc(OCc3ccccc3)c3c(-c4ccccc4)coc3c2)cc1 | 75.4 | IC50 [2]: 0.874 µM; inhibition [3]: inactive; inhibition [4]: inactive; inhibition [5]: Active; IC50 (SK-HEP1 [6]): 1.14 µM; IC50 (SNU-423): 2.73 µM; Activity (SK-HEP1 [7]): Active; inhibition [8]: Active; inhibition [9]: Active; inhibition [10]: Active; inhibition [11]: inactive
11 | COc1ccc2occ(-c3ccc(F)cc3)c2c1 | 30.7 | –
12 | Clc1ccc2oc(-c3ccccc3)c(-c3ccccc3)c2c1 | 22.9 | –
13 | Cc1ccc(-c2coc3ccc(O)cc23)cc1C | 27.8 | –
14 | COc1ccc2oc(-c3ccccc3)c(-c3ccccc3)c2c1 | 25.7 | –
15 | COc1ccc2c(C)coc2c1 | 65.1 | –
16 | O=[N+]([O-])c1ccc2occ(-c3ccc4c(c3)OCO4)c2c1 | 23.4 | –
17 | Oc1ccc2occ(-c3ccccc3)c2c1 | 28 | –
18 | Cc1ccc(-c2coc3ccc(O)cc23)cc1 | 33.1 | –
19 | Cc1cccc2c(-c3ccccc3)c(-c3ccccc3)oc12 | 19.6 | –
20 | COc1ccc(-c2coc3ccccc23)cc1 | 54.8 | –
21 | Clc1ccc(-c2coc3ccccc23)cc1 | 18.3 | –
22 | N#Cc1ccc2occ(-c3ccc4c(c3)OCO4)c2c1 | 46.9 | –

Row | SMILES | inhibition [1] [%] | other results
23 | COc1cc(OC)c2c(C)coc2c1 | 45.9 | –
24 | O=[N+]([O-])c1ccc2occ(-c3cccc4ccccc34)c2c1 | 14 | –
25 | Cc1ccc2oc(-c3ccccc3)c(-c3ccccc3)c2c1 | 13.9 | –
26 | c1ccc2c(-c3ccsc3)coc2c1 | 43.5 | –
27 | COc1cccc(-c2coc3ccccc23)n1 | 34.8 | –
28 | CC(C)(C)c1ccc2occ(-c3ccccc3)c2c1 | 11 | –
29 | c1ccc(-c2oc3ccccc3c2-c2ccccc2)cc1 | 15.8 | –
30 | Cc1ccc(-c2coc3c(Cl)cc([N+](=O)[O-])cc23)cc1 | 30.3 | –
31 | Brc1ccc2occ(-c3ccccc3)c2c1 | 19.5 | –
32 | COc1cc(OC)c2c(-c3ccccc3)coc2c1 | 69.6 | –
33 | CC(C)(C)c1ccc2c(-c3ccc4c(c3)OCO4)coc2c1 | 63.7 | –
34 | COc1ccc(-c2coc3ccc(C#N)cc23)cc1 | 38.2 | –
35 | O=C1C=CC(=O)c2c(O)cccc21 | 52.6 | –
36 | CC(C)(C)c1ccc2occ(-c3ccc(Br)cc3)c2c1 | 28.9 | –
37 | c1ccc(-c2coc3ccccc23)cc1 | 12.4 | –
38 | COc1ccc2occ(-c3ccc(C)cc3)c2c1 | 29.8 | –
39 | Clc1ccc2occ(-c3ccccc3)c2c1 | 19.2 | –
40 | COc1ccc(-c2coc3ccc([N+](=O)[O-])cc23)cc1 | 43.7 | –
41 | COc1ccc2c(-c3ccccc3)coc2c1 | – | IC50 [2]: 2.23 µM
42 | COc1ccc2occ(-c3ccc(C)c(C)c3)c2c1 | 23.7 | –
43 | Oc1ccc2occ(-c3ccc(Cl)cc3)c2c1 | 13.8 | –
44 | Oc1ccc2occ(-c3ccc(F)cc3)c2c1 | 23.8 | –

From ChEMBL document CHEMBL4340544, “Discovery of 4,6-bis(benzyloxy)-3-phenylbenzofuran as a novel Pin1 inhibitor to suppress hepatocellular carcinoma via upregulating microRNA biogenesis” (Bioorg Med Chem, 2019)
